US12655145B2, “P2X3 modulators” (GlaxoSmithKline Intellectual Property (No. 3) Limited, priority 2020, dated 2026)

Biological target: T1, P2X3 (Homo sapiens, UniProt P56373)
T1 construct: expressed in transfected cells; host or cells: HEK293
T1 sequence (P56373 1-397): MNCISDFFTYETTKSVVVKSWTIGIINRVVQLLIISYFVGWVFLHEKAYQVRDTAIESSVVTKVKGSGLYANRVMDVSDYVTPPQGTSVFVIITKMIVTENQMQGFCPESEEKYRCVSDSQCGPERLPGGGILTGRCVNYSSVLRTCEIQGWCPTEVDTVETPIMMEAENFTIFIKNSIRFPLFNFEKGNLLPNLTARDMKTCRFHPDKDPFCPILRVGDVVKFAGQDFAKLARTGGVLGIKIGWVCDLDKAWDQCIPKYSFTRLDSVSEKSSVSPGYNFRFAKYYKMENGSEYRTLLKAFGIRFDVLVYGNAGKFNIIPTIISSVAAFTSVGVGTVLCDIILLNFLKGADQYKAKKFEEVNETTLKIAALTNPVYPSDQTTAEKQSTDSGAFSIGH
Test: P2X3 Antagonist Assay (FLIPR calcium, Fluo-8, HEK293 cells transfected with human ion channel cDNAs, αβ-meATP stimulation)
Format: cell-based
Details: antagonist mode, αβ-meATP 3 μM; for inhibition at 1 µM: HEK293, @ 1 μM, read-out: P2X3 IC50 column, given as % @ 1 μM
Description: Example 59: P2X3 Antagonist Assay
HEK293 were transiently or stably transfected with human ion channel cDNAs as indicated in section 1. Stable transfectants were selected by coexpression with the antibiotic-resistance gene(s) incorporated into the expression plasmid(s). Selection pressure was maintained by including selection antibiotics in the culture medium. HEK293 cells were cultured in Dulbecco's Modified Eagle Medium/Nutrient Mixture F-12 (D-MEM/F-12) supplemented with 10% fetal bovine serum, 100 U/mL penicillin G sodium, 100 J·Lg/mL streptomycin sulfate and appropriate selection antibiotics.
The effect of each test article to act as an antagonist was evaluated. Each test article was evaluated at eight (8) concentrations (0.001, 0.003, 0.01, 0.03, 0.1, 0.3, 1 and 3 μM, n=3) with 4 replicates for each concentration. Experiments were performed with the FLIPR calcium sensitive dye kit (Fluo-8 dye, AAT, Bioquest) according to the manufacturer's instructions. • Dye-loading: Growth media will be removed and add 20 μL of Mg^++-free HBPS containing Fluo-8 for 30 min at 37° C. • Preincubation (FLIPR step 1): Adding 5× (5 μL) test, vehicle, or control article solutions in Mg^+-free HBPS to each well for 20 minutes at room temperature, protected from light. • Stimulation (FLIPR step 2): After pre-incubation, cells will be stimulated with 6× (5 μL) αβ-meATP at final concentration of 3 μM prepared in Mg^++-free HBPS. • Non-Specific Calcium Influx (FLIPR step 3): 5 minutes after stimulation solution addition, non-specific calcium influx will be activated by adding 7×(5 μL) ionomycin at a final concentration of 5 μM. Fluorescence will be recorded continuously during FLIPR steps 2 and 3. • Positive Control Antagonist: PPADS (1 mM).
Data acquisition was performed via the FLIPRControl software that is supplied with the FLIPR System (MDS-AT) and data was analyzed using Microsoft Excel2003 (Microsoft Corp., Redmond, WA).

SMILES | IC50 [nM] | other results
CNC(=O)c1cc(F)c(-c2nc3cc(C)ccn3c2CC2CCCCN(C(=O)OC)C2)c(F)c1 (single isomer, unassigned) [A17 (Peak 2), methyl 3-((2-(2,6-difluoro-4-(methylcarbamoyl)phenyl)-7-methylimidazo[1,2-a]pyridin-3-yl)methyl)azepane-1-carboxylate] |  | P2X3 IC50 column, given as % @ 1 μM: 21% @ 1 μM
CNC(=O)c1cc(F)c(-c2nc3cc(C)ccn3c2CC2CN(C(=O)OC)CCCO2)c(F)c1 (single isomer, unassigned) [A14 (Peak 1), methyl 2-((2-(2,6-difluoro-4-(methylcarbamoyl)phenyl)-7-methylimidazo[1,2-a]pyridin-3-yl)methyl)-1,4-oxazepane-4-carboxylate] |  | inhibition at 1 µM: 39%
CNC(=O)c1cc(C)c(-c2nc3cc(Cl)ccn3c2C[C@H]2CN(C(=O)OC)CCO2)cc1F [Compound A13, methyl (S)-2-((7-chloro-2-(5-fluoro-2-methyl-4-(methylcarbamoyl)phenyl)imidazo[1,2-a]pyridin-3-yl)methyl)morpholine-4-carboxylate] | < 100 | 
CNC(=O)c1cc(F)c(-c2nc3cc(OC)ccn3c2C[C@H]2CN(C(=O)OC)CCO2)c(F)c1 [Compound A3, methyl (S)-2-((2-(2,6-difluoro-4-(methylcarbamoyl)phenyl)-7-methoxyimidazo[1,2-a]pyridin-3-yl)methyl)morpholine-4-carboxylate] | < 100 | 
CNC(=O)c1cc(F)c(-c2nc3cc(C)ccn3c2CC2CN(C(=O)OC)CCCO2)c(F)c1 (single isomer, unassigned) [A14 (Peak 2), methyl 2-((2-(2,6-difluoro-4-(methylcarbamoyl)phenyl)-7-methylimidazo[1,2-a]pyridin-3-yl)methyl)-1,4-oxazepane-4-carboxylate] | < 100 | 
COC(=O)N1CCO[C@@H](Cc2c(-c3ccc([S+](C)[O-])cc3F)nc3cc(C)ccn23)C1 (stereo partly drawn) [Compound A58, methyl (2S)-2-((2-(2-fluoro-4-(methylsulfinyl)phenyl)-7-methyl-imidazo[1,2-a]pyridin-3-yl)methyl)morpholine-4-carboxylate] |  | inhibition at 1 µM: 16%
CNC(=O)c1cc(F)c(-c2nc3cc(C)ccn3c2CC2COCCN(C(=O)OC)C2)c(F)c1 (single isomer, unassigned) [A16 (Peak 2), methyl 6-((2-(2,6-difluoro-4-(methylcarbamoyl)phenyl)-7-meth-ylimidazo[1,2-a]pyridin-3-yl)methyl)-1,4-oxazepane-4-carboxylate] |  | P2X3 IC50 column, given as % @ 1 μM: 23% @ 1 μM
CNC(=O)c1cc(F)c(-c2nc3cc(C)ccn3c2CC2COCCN(C(=O)OC)C2)c(F)c1 (single isomer, unassigned) [A16 (Peak 1), methyl 6-((2-(2,6-difluoro-4-(methylcarbamoyl)phenyl)-7-meth-ylimidazo[1,2-a]pyridin-3-yl)methyl)-1,4-oxazepane-4-carboxylate] |  | inhibition at 1 µM: 29%
CNC(=O)c1cc(F)c(-c2nc3nc(C)ccn3c2C[C@H]2CN(C(=O)OC)CCO2)c(F)c1 [Compound A28, methyl (S)-2-((2-(2,6-difluoro-4-(methylcarbamoyl)phenyl)-7-methylimidazo[1,2-a]pyrimidin-3-yl)methyl)morpholine-4-carboxylate] | < 100 | 
CNC(=O)c1ccc(-c2nc3cc(C)ccn3c2C[C@H]2CN(C(=O)OC)CCO2)c(F)c1 [Compound A10, methyl (S)-2-((2-(2-fluoro-4-(methylcarbamoyl)phenyl)-7-methylimidazo[1,2-a]pyridin-3-yl)methyl)morpholine-4-carboxylate] | < 100 | 
CNC(=O)c1cc(F)c(-c2nc3cc(C)ncn3c2C[C@H]2CN(C(=O)OC)CCO2)c(F)c1 [Compound A29, methyl (S)-2-((2-(2,6-difluoro-4-(methylcarbamoyl)phenyl)-7-methylimidazo[1,2-c]pyrimidin-3-yl)methyl)morpholine-4-carboxylate] | < 100 | 
CNC(=O)c1cc(F)c(-c2nc3cc(C)cnn3c2C[C@H]2CN(C(=O)OC)CCO2)c(F)c1 [Compound A27, methyl (S)-2-((2-(2,6-difluoro-4-(methylcarbamoyl)phenyl)-7-methylimidazo[1,2-b]pyridazin-3-yl)methyl)morpholine-4-carboxylate] |  | inhibition at 1 µM: 6%
CNC(=O)c1cc(F)c(-c2nc3cc(Cl)ccn3c2C[C@H]2CN(C(=O)OC)CCO2)c(OC)c1F [Compound A40, methyl (S)-2-((7-chloro-2-(3,6-difluoro-2-methoxy-4-(methyl-carbamoyl)phenyl)imidazo[1,2-a]pyridin-3-yl)methyl)morpholine-4-carboxylate] | < 100 | 
CNC(=O)c1ccc(-c2nc3cc(S(C)(=O)=O)ccn3c2C[C@H]2CN(C(=O)OC)CCO2)c(F)c1 [Compound A48, methyl (S)-2-((2-(2-fluoro-4-(methylcarbamoyl)phenyl)-7-(methylsulfonyl)imidazo[1,2-a]-pyridin-3-yl)methyl)morpholine-4-carboxylate] | > 1000 | 
CNC(=O)c1ccc(-c2nc3cc(Cl)ccn3c2C[C@H]2CN(C(C)=O)CCO2)c(F)c1 [Compound A88, (S)-4-(3-((4-acetylmorpholin-2-yl)methyl)-7-chloroimidazo[1,2-a]pyridin-2-yl)-3-fluoro-N-methylbenzamide] | 100 to 1000 | 
CNC(=O)c1cc(F)c(-c2nc3cc(C)ccn3c2CC2CCCC(NC(C)=O)C2)c(F)c1 (single isomer, unassigned) [trans-A22 (Peak 2), 4-(3-((3-acetamidocyclohexyl)methyl)-7-methylimidazo[1,2-a]pyridin-2-yl)-3,5-difluoro-N-methylbenzamide] |  | P2X3 IC50 column, given as % @ 1 μM: 17% @ 1 μM
CNC(=O)c1ccc(-c2nc3cc(C(F)F)ccn3c2C[C@H]2CN(C(=O)OC)CCO2)c(F)c1 [Compound A42, methyl (S)-2-((7-(difluoromethyl)-2-(2-fluoro-4-(methylcarbamoyl)phenyl)imidazo[1,2-a]pyridin-3-yl)methyl)morpholine-4-carboxylate] | < 100 | 
CNC(=O)c1cc(F)c(-c2nc3cc(Cl)ccn3c2C[C@H]2CN(C(=O)OC)CCO2)c(F)c1 [Compound A2, methyl (S)-2-((7-chloro-2-(2,6-difluoro-4-(methyl-carb-amoyl)-phenyl)-imidazo[1,2-a]pyridin-3-yl)methyl)morpholine-4-carboxylate] | < 100 | 
CNC(=O)c1cc(F)c(-c2nc3cc(C)ccn3c2CC2CCCC(NC(C)=O)C2)c(F)c1 (single isomer, unassigned) [cis-A22 (Peak 1), 4-(3-((3-acetamidocyclohexyl)methyl)-7-methylimidazo[1,2-a]pyridin-2-yl)-3,5-difluoro-N-methylbenzamide] | < 100 | 
CNC(=O)c1ccc(-c2nc3cc(C4CC4)ccn3c2C[C@H]2CN(C(=O)OC)CCO2)c(F)c1 [Compound A52, methyl (S)-2-((7-cyclopropyl-2-(2-fluoro-4-(methylcarbamoyl)-phenyl)imidazo[1,2-a]pyridin-3-yl)methyl)morpholine-4-carboxylate] |  | inhibition at 1 µM: 50%
CNC(=O)c1cc(F)c(-c2nc3cc(C)ccn3c2C[C@H]2CCCN(C(=O)OC)C2)c(F)c1 [(R)-A19, methyl (R)-3-((2-(2,6-difluoro-4-(methylcarbamoyl)phenyl)-7-methylimidazo[1,2-a]pyridin-3-yl)methyl)piperidine-1-carboxylate] | < 100 | 
CNC(=O)c1cc(F)c(-c2nc3cc(C(F)F)ccn3c2C[C@H]2CN(C(=O)OC)CCO2)c(OC)c1F [Compound A41, methyl (S)-2-((2-(3,6-difluoro-2-methoxy-4-(methylcarbamoyl)-phenyl)-7-(difluoromethyl)imidazo[1,2-a]pyridin-3-yl)methyl)morpholine-4-carboxylate] | 100 to 1000 | 
CNC(=O)c1cc(F)c(-c2nc3cc(C)ccn3c2CC2CCCCN(C(=O)OC)C2)c(F)c1 (single isomer, unassigned) [A17 (Peak 1), methyl 3-((2-(2,6-difluoro-4-(methylcarbamoyl)phenyl)-7-methylimidazo[1,2-a]pyridin-3-yl)methyl)azepane-1-carboxylate] |  | inhibition at 1 µM: 30%
